≈ marks a conversion by molar mass, not a printed value. Like-named read-outs stand apart in the source and are kept apart here. Starred links: 1 amine or outer side, 2 acyl side, 3 side chain; linkers in the order of their positions; H or OH if unused. Positions of bridges follow the written chain, without caps; N, C: chain ends. Residues, ends and D or L forms follow the SMILES beside them. Groups on a side chain read outwards from the residue. *: point of attachment. C20 diacid = O=C(O)CCCCCCCCCCCCCCCCCCC(=O)*; γGlu = O=C(O)[C@H](CCC(=O)[*:2])N[*:1]; AEEA = NCCOCCOCC(=O)O

Solubility data for two molecules are collected here from patent US8722849B2, “Polypeptides” (Novo Nordisk A/S, priority 2011, dated 2014).

This series in a line: Assay (IV) determination of solubility. Format: physicochemical. An outline of the steps:
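Polypeptide in water (~500 nmol/ml) mixed 1:1 with 100 mM glycylglycine (pH 3.0–5.0) or bistrispropane (pH 6.0–8.0) buffers. Held 18 hours at room temperature, then centrifuged. Polypeptide remaining in solution quantified by HPLC.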

The mark [1] stands for this setting: pH 3, pH 3.0, read-out: Solubility pH 3.0.
[2] abbreviates: pH 4, pH 4.0, 18 hours at room temperature, Table 2, read-out: Solubility pH 4.0.
Setting [3] is: pH 4, pH 4.0, read-out: Solubility pH 4.0.
Where [4] appears, read: pH 5, pH 5.0, read-out: Solubility pH 5.0.
[5] abbreviates: pH 6, pH 6.0, read-out: Solubility pH 6.0.
Setting [6] is: pH 6.5, pH 6.5, read-out: Solubility pH 6.5.
Where [7] appears, read: pH 7, pH 7.0, 18 hours at room temperature, Table 3, read-out: Solubility pH 7.0.
The mark [8] stands for this setting: pH 7, pH 7.0, read-out: Solubility pH 7.0.
The mark [9] stands for this setting: pH 7.5, pH 7.5, read-out: Solubility pH 7.5.
[10] abbreviates: pH 8, pH 8.0, read-out: Solubility pH 8.0.

In general, solubility refers to how much of the substance goes into solution per volume. With `CC[C@H](C)[C@H](NC(=O)[C@@H]1CCCN1C(=O)CNC(=O)[C@H](Cc1ccccc1)NC(=O)[C@H](CC(N)=O)NC(=O)[C@H](CCCCNC(=O)COCCOCCNC(=O)COCCOCCNC(=O)CC[C@H](NC(=O)CCCCCCCCCCCCCCCCCCC(=O)O)C(=O)O)NC(=O)[C@H](CO)NC(=O)[C@H](CO)NC(=O)[C@H](CCCNC(=N)N)NC(=O)[C@@H](NC(=O)[C@H](CC(C)C)NC(=O)[C@H](Cc1ccccc1)NC(=O)[C@H](CCC(=O)O)NC(=O)[C@H](C)NC(=O)[C@H](CC(C)C)NC(=O)[C@H](CCCNC(=N)N)NC(=O)[C@H](CCC(N)=O)NC(=O)[C@@H](NC(=O)[C@H](C)NC(=O)[C@@H]1CSSC[C@H](NC(=O)[C@@H](N)CCCCN)C(=O)N[C@@H](CC(N)=O)C(=O)N[C@@H]([C@@H](C)O)C(=O)N[C@@H](C)C(=O)N[C@@H]([C@@H](C)O)C(=O)N1)[C@@H](C)O)C(C)C)C(=O)N[C@@H](CC(C)C)C(=O)N[C@@H](CO)C(=O)N[C@@H](CCCNC(=N)N)C(=O)N[C@H](C(=O)N[C@@H](CC(N)=O)C(=O)N[C@H](C(=O)NCC(=O)N[C@@H](CO)C(=O)N[C@@H](CCCNC(=N)N)C(=O)N[C@H](C(=O)N[C@@H](Cc1ccc(O)cc1)C(N)=O)[C@@H](C)O)C(C)C)[C@@H](C)O` [Example 150, N-epsilon21-[2-(2-{2-[2-(2-{2-[(S)-4-Carboxy-4-(19-carboxyheptadecanoylamino)butyrylamino]ethoxy}ethoxy)acetylamino]ethoxy}ethoxy)acetyl]-[Glu14,Arg18,Lys21,Ser28,Arg29,Arg35]-pramlintide] (H-KCNTATCATQRLAEFLVRSSK([AEEA-AEEA-γGlu-C20 diacid])NFGPILSRTNVGSRTY-NH2; disulfide 2-7), the solubility is, setting by setting: under setting [1], > 200 µM; under setting [2], > 200 µM; under setting [3], > 200 µM; under setting [4], > 200 µM; under setting [5], > 200 µM; under setting [6], 163 µM (≈ 788 µg/mL). Also, the solubility is, setting by setting: under setting [7], > 200 µM; (pH 7, pH 7.0, Table 8, read-out: Solubility pH 7.0) > 200 µM; (pH 7, pH 7.0, Table 9, read-out: Solubility pH 7.0) > 200 µM; under setting [8], > 200 µM; (pH 7.5, pH 7.5, Table 9, read-out: Solubility pH 7.5) > 200 µM; under setting [9], > 200 µM. In addition, the solubility under setting [10] was > 200 µM.
With `CC[C@H](C)[C@H](NC(=O)[C@@H]1CCCN1C(=O)CNC(=O)[C@H](Cc1ccccc1)NC(=O)[C@H](CC(N)=O)NC(=O)[C@H](C)NC(=O)[C@H](CO)NC(=O)[C@H](CO)NC(=O)[C@H](Cc1c[nH]cn1)NC(=O)[C@H](Cc1c[nH]cn1)NC(=O)[C@H](CC(C)C)NC(=O)[C@H](Cc1ccccc1)NC(=O)[C@H](CCC(=O)O)NC(=O)[C@H](C)NC(=O)[C@H](CC(C)C)NC(=O)[C@H](CCCNC(=N)N)NC(=O)[C@H](CCC(N)=O)NC(=O)[C@@H](NC(=O)[C@H](C)NC(=O)[C@@H]1CSSC[C@H](NC(=O)[C@H](CCCCN)NC(=O)COCCOCCNC(=O)COCCOCCNC(=O)CC[C@H](NC(=O)CCCCCCCCCCCCCCCCCCC(=O)O)C(=O)O)C(=O)N[C@@H](CC(N)=O)C(=O)N[C@@H]([C@@H](C)O)C(=O)N[C@@H](C)C(=O)N[C@@H]([C@@H](C)O)C(=O)N1)[C@@H](C)O)C(=O)N[C@@H](CC(C)C)C(=O)N1CCC[C@H]1C(=O)N1CCC[C@H]1C(=O)N[C@H](C(=O)N[C@@H](CC(N)=O)C(=O)N[C@H](C(=O)NCC(=O)N[C@@H](CO)C(=O)N[C@@H](CC(N)=O)C(=O)N[C@H](C(=O)N1CCC[C@H]1C(N)=O)[C@@H](C)O)C(C)C)[C@@H](C)O` [Example 169, N-alpha-[2-(2-{2-[2-(2-{2-[(S)-4-Carboxy-4-(19-carboxyheptadecanoylamino)butyrylamino]ethoxy}ethoxy)acetylamino]ethoxy}ethoxy)acetyl]-[Glu14,His17,Ala21,Pro37]-pramlintide] ({C20 diacid-γGlu-AEEA-AEEA}-KCNTATCATQRLAEFLHHSSANFGPILPPTNVGSNTP-NH2; disulfide 2-7), the solubility by setting is: under setting [1], > 200 µM; under setting [2], > 200 µM; under setting [3], > 200 µM; under setting [4], > 200 µM; under setting [5], > 200 µM; under setting [6], > 200 µM. Further, the solubility is, setting by setting: under setting [7], > 200 µM; under setting [8], > 200 µM; under setting [9], > 200 µM; under setting [10], > 200 µM.
